Columns and labels:
Endothelin-1 receptor [1] = molecular target: T1, Endothelin-1 receptor (Homo sapiens, UniProt P25101); assay: Inhibitory of human Endothelin A receptor by using I-ET-1 as radioligand in a competitive radioligand assay
T1 sequence (P25101 whole entry): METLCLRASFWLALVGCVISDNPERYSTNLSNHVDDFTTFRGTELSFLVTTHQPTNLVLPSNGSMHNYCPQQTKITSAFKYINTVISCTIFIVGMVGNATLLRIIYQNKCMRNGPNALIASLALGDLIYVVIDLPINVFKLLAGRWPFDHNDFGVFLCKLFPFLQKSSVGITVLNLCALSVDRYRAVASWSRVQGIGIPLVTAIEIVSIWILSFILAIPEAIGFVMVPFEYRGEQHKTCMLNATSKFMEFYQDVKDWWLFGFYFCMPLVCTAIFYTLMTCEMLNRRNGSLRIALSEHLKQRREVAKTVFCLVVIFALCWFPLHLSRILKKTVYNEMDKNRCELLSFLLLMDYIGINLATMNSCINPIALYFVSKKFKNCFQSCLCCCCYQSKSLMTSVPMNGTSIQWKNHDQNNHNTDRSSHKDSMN

[2] = molecular target: T2, Endothelin receptor type B (Homo sapiens, UniProt P24530); assay: Inhibition of human Endothelin B receptor using I-ET-1 as radioligand in a competitive radioligand assay
T2 sequence (P24530 whole entry): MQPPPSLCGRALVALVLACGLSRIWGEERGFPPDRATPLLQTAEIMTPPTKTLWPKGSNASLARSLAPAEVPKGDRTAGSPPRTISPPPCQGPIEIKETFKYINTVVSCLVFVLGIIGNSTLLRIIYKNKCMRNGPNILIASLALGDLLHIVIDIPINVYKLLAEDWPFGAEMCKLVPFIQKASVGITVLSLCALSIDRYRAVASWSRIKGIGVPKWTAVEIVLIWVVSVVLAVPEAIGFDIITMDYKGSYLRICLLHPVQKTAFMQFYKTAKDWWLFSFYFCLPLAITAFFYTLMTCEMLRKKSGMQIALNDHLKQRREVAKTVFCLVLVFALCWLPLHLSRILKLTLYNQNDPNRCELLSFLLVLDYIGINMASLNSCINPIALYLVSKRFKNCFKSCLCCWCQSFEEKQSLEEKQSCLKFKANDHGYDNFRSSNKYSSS

Endothelin-1 receptor [3] = molecular target: T1, Endothelin-1 receptor; assay: Tested for the inhibitory activity of cloned human ETA receptor by using I-ET-1 as radioligand in a competitive radioligand assay
[4] = molecular target: T2, Endothelin receptor type B; assay: Tested for the inhibitory activity of cloned human ETB receptor by using I-ET-1 as radioligand in a competitive radioligand assay

SMILES	IC50 (Endothelin-1 receptor [1])	IC50 [2]	IC50 (Endothelin-1 receptor [3])	IC50 [4]
Cc1noc(NS(=O)(=O)c2ccsc2CCc2ccc3c(c2)OCO3)c1Br	0.205 µM	9.24 µM	–	–
Cc1cc(C)c(CCc2sccc2S(=O)(=O)Nc2onc(C)c2Br)c(C)c1	0.046 µM	2.09 µM	–	–
Cc1noc(NS(=O)(=O)c2ccsc2/C=C/c2ccc3c(c2)OCO3)c1Br	0.141 µM	5.25 µM	–	–
Cc1ccc(/C=C/c2sccc2S(=O)(=O)Nc2onc(C)c2Br)cc1	0.231 µM	4.13 µM	–	–
Cc1cc2c(cc1CCc1sccc1S(=O)(=O)Nc1onc(C)c1Br)OCO2	0.062 µM	8.9 µM	–	–
Cc1cc(C)c(NC(=O)c2sccc2S(=O)(=O)Nc2onc(C)c2Cl)c(C)c1	0.63 µM	–	–	–
Cc1cc(C)c(/C=C/c2sccc2S(=O)(=O)Nc2onc(C)c2Br)c(C)c1	0.044 µM	2 µM	–	–
Cc1noc(NS(=O)(=O)c2sccc2CCc2ccc3c(c2)OCO3)c1Br	0.237 µM	17.9 µM	–	–
Cc1cc2c(cc1CCc1ccsc1S(=O)(=O)Nc1onc(C)c1Br)OCO2	0.091 µM	12.4 µM	–	–
Cc1ccc(CCc2sccc2S(=O)(=O)Nc2onc(C)c2Br)cc1	–	11.7 µM	–	–

More lines, now with the values ahead:

IC50 (Endothelin-1 receptor [1])	IC50 [2]	IC50 (Endothelin-1 receptor [3])	IC50 [4]	SMILES
0.079 µM	3.24 µM	–	–	Cc1noc(NS(=O)(=O)c2sccc2/C=C/c2cc3c(cc2CO)OCO3)c1Br
0.058 µM	1.39 µM	–	–	Cc1cc(C)c(CCc2ccsc2S(=O)(=O)Nc2onc(C)c2Br)c(C)c1
0.053 µM	1.72 µM	–	–	Cc1cc(C)c(/C=C/c2ccsc2S(=O)(=O)Nc2onc(C)c2Br)c(C)c1
0.102 µM	–	–	–	Cc1ccc(CCc2ccsc2S(=O)(=O)Nc2onc(C)c2Br)c(C)c1
–	–	0.072 µM	5.37 µM	Cc1cc2c(cc1/C=C/c1ccsc1S(=O)(=O)Nc1onc(C)c1Br)OCO2
0.166 µM	2.97 µM	–	–	Cc1ccc(/C=C/c2sccc2S(=O)(=O)Nc2onc(C)c2Br)c(C)c1
0.073 µM	4.13 µM	–	–	Cc1noc(NS(=O)(=O)c2sccc2/C=C/c2cc3c(cc2COC2CCOCC2)OCO3)c1Br
0.218 µM	9.95 µM	–	–	Cc1noc(NS(=O)(=O)c2sccc2/C=C/c2ccc3c(c2)OCO3)c1Br
0.18 µM	2.97 µM	–	–	Cc1ccc(/C=C/c2ccsc2S(=O)(=O)Nc2onc(C)c2Br)c(C)c1
0.081 µM	3.28 µM	–	–	Cc1cc2c(cc1/C=C/c1sccc1S(=O)(=O)Nc1onc(C)c1Br)OCO2
–	6.63 µM	–	–	Cc1ccc(/C=C/c2ccsc2S(=O)(=O)Nc2onc(C)c2Br)cc1

— ChEMBL document CHEMBL1129901, “Amide bond surrogates: A study in thiophenesulfonamide based endothelin receptor antagonists” (Bioorg Med Chem Lett, 1997)
